The text below walks through data of PubChem BioAssay AID1996.

In brackets after ≈: the same amount, converted by molar mass.

The conditions of the series: buffer; pH 7.4; 200.0 µM.
What is called solubility (kinetic) is solubility judged after dilution from a stock solution rather than from solid. With `Cc1ccnc(N2C3CCC2CC(O)(c2ccccc2)C3)n1` (stereo unspecified), the kinetic solubility was over 44.3 µg/mL.
As to `Cc1cc(C)cc(NC(=O)NC2CCCCCCC2)c1`, the solubility (kinetic) is 1 µg/mL (≈ 3.64 µM).
Next, `Cc1ccc2[nH]c3c(c2c1)CCN(C)C3`: over 30 µg/mL; `Cc1ccc(OCCNC(=O)c2ccc(C)cc2)cc1`: 3.8 µg/mL (≈ 14.1 µM).
In the case of `N#Cc1cc(S(=O)(=O)N2CCOCC2)ccc1N1CCOCC1` it was over 50.6 µg/mL.
Next, `CN1CCCC(C(O)(c2ccccc2)c2ccccc2)C1` (stereo unspecified): 40.8 µg/mL (≈ 145 µM); `CCn1c(=O)c(C(=O)Nc2ccccc2F)c(O)c2ccccc21`: 0.4 µg/mL (≈ 1.23 µM); `COc1ccc(NC(=O)C2=CN3CCS(=O)(=O)N=C3C=C2)c(OC)c1`: 37.8 µg/mL (≈ 104 µM).
`COc1ccccc1CNCC(=O)Nc1cc(S(=O)(=O)N2CCCCC2)ccc1C.O=C(O)C(=O)O`: the solubility (kinetic) is 34.3 µg/mL. This solubility kinetic and that of the compound before are within 1.5-fold of each other.
In turn, `COc1ccccc1NC(=O)C1CC(C(C)C)OC1=O` (stereo unspecified) yielded a kinetic solubility of 38.3 µg/mL (≈ 138 µM). This solubility kinetic and that of the compound before are within 1.5-fold of each other.
The compound `O=C(Nc1ccccc1)C1CC2CCC1C2` (stereo unspecified) gave a solubility (kinetic) of 31.8 µg/mL (≈ 148 µM).
In turn, `COCCn1c(C)cc(O)c(C(=O)Nc2cccc(Cl)c2)c1=O` showed a kinetic solubility of under 0.4 µg/mL.
In the case of `CCOC(=O)c1c(C)nc2cc(C)cc(C)n12` it was 32.4 µg/mL (≈ 139 µM).
In turn, `CN1CCN(C(=O)/C(=C/c2ccco2)NC(=O)c2ccccc2)CC1` had a solubility (kinetic) of 40.7 µg/mL (≈ 120 µM).
Compound `COCCN1CCn2c(nc3cc([N+](=O)[O-])ccc32)C1` displayed a solubility (kinetic) of over 41.4 µg/mL.
In the case of `CCN(c1ccccc1)S(=O)(=O)c1ccc(Cl)c(NC(=O)CNC(C)c2ccccc2)c1` (stereo unspecified) it was 3.2 µg/mL (≈ 6.78 µM); in that of `Cc1cc(C)c(C)c(OCC(=O)O/N=C(\N)c2ccncc2)c1`, 28.5 µg/mL (≈ 91 µM); in that of `Cc1cc(/C=C(\C#N)C(=O)Nc2ccccc2F)c(C)[nH]1`, 0.8 µg/mL (≈ 2.82 µM).
`COCCn1c(=O)[nH]c2cc(C(=O)Nc3cccc(F)c3)ccc2c1=O` registered a solubility (kinetic) of 6.2 µg/mL (≈ 17.4 µM). This solubility kinetic lies about 7.8-fold higher than the previous one.
In the case of `Cc1nc(C)c(C(=O)O)c(-c2cccs2)c1C(=O)O` it was over 41.6 µg/mL; in that of `CC(=O)Nc1ccc(S(=O)(=O)NC2CCS(=O)(=O)C2)cc1Cl` (stereo unspecified), 23.8 µg/mL (≈ 64.9 µM).
`OCCN1CCN(c2cc(C(F)(F)F)nc3ccccc23)CC1` yielded a solubility (kinetic) of over 48.8 µg/mL.
The compound `O=C(Nc1ccccc1F)NC1CCCCCCC1` came in with a solubility (kinetic) of 6.9 µg/mL (≈ 26.1 µM).
Next, `Cc1ncoc1C(=O)N1CCCC(C(=O)c2cccc3ccccc23)C1` (stereo unspecified): 50.3 µg/mL (≈ 144 µM); `CCOCCCNC(=O)c1c[nH]c2cc(OC)ccc2c1=O`: over 45.7 µg/mL.
In the case of `Cc1nc(N)c(Cc2ccccc2F)c(N)n1` it was over 34.8 µg/mL.
Regarding `Cc1nc2ccc(NC(=O)[C@H](C)N3C(=O)C4CC=CCC4C3=O)cc2s1` (stereo partly specified), the solubility (kinetic) is over 55.4 µg/mL.
Next, `O=C(O)C1CCN(C(=O)c2cccc3ccccc23)CC1`: over 42.5 µg/mL.
Turning to `Cc1c(Cl)cccc1NC(=O)NCc1ccccn1`, the solubility (kinetic) was found to be 38.5 µg/mL (≈ 140 µM).
In the case of `O=C(/C=C/c1ccccc1)Nc1cccnc1Cl` it was 38.8 µg/mL (≈ 150 µM); in that of `O=C(COC(=O)[C@@H]1CC(O)CN1S(=O)(=O)c1ccc(Cl)c(Cl)c1)NC(=O)NCc1ccccc1` (stereo partly specified), 66.7 µg/mL (≈ 126 µM); in that of `CCNC(=S)N1CCC(C(=O)c2ccc3c(c2)OCCO3)CC1`, 44.8 µg/mL (≈ 134 µM).
The compound `Cc1ccccc1C(=O)NCCNC(=O)c1ccccn1` had a solubility (kinetic) of 39.3 µg/mL (≈ 139 µM).
Next, `Cc1ccc(Nc2nc3ccccc3c(=O)[nH]2)cc1C`: 0.4 µg/mL (≈ 1.51 µM); `COc1ccccc1C(=O)Nc1ccc(Nc2ccccc2)cc1`: under 0.3 µg/mL.
Consider `O=C(O)c1ccc(NC(=O)C2C3CCC(O3)C2C(=O)O)cc1` (stereo unspecified), for which the kinetic solubility was over 45.8 µg/mL.
In the case of `N[C@H]1CONC1=O` it was over 15.3 µg/mL.
In the case of `Cn1cc(C(=O)Nc2ccccn2)c(=O)c2ccccc21`, the kinetic solubility amounted to 1.3 µg/mL (≈ 4.65 µM).
Regarding `Cc1ccccc1NC(=O)c1ccc2ccccc2c1`, the solubility (kinetic) is 1.2 µg/mL (≈ 4.59 µM). This solubility kinetic and that of the compound before are within 1.5-fold of each other.
Next, `O=C(CSc1nc2ncc(Cl)cc2[nH]1)N1CCOCC1`: over 46.9 µg/mL; `CC(C)c1ccc(/C=C2\SC(N3CCOCC3)=NC2=O)cc1`: 29.9 µg/mL (≈ 94.5 µM).
In the case of `CCCNC(=O)c1c(O)c2cccc3c2n(c1=O)CCC3` it was 0.5 µg/mL (≈ 1.75 µM); in that of `COc1ccc(CCNCc2ccsc2)cc1OC`, 37.1 µg/mL (≈ 134 µM); in that of `O=C(Nc1nccs1)c1ncc(Cl)c(Cl)c1Cl`, 12.5 µg/mL (≈ 40.5 µM).
In the case of `COP(=O)(OC)C(NC(C)=O)C(Cl)(Cl)Cl` (stereo unspecified) it was over 44.8 µg/mL; in that of `O=C1CSCC(=O)N1Cc1ccc(Cl)c(Cl)c1`, 43.2 µg/mL (≈ 149 µM); in that of `COc1ccc(CC(=O)OCC(=O)NC2CCCC(C)C2C)cc1OC` (stereo unspecified), over 54.5 µg/mL.
In turn, `CCOc1ccc(C(=O)N2CCN(c3cccc(Cl)c3)CC2)cc1` showed a kinetic solubility of 14.3 µg/mL (≈ 41.5 µM).
Next, `COc1ccc2c(c1)[nH]c1c(N3CCSCC3)ncnc12`: 11.5 µg/mL (≈ 38.3 µM); `CC(=O)NC1=NN(C(C)=O)C(C)(c2cccnc2)S1` (stereo unspecified): over 41.7 µg/mL; `O=C(Nc1ccc(Br)cc1)c1cccnc1N1CCOCC1`: over 54.3 µg/mL.
Next, `CCOc1ccccc1CNC(=O)CCc1cn(C)c2ccccc12`: 3.1 µg/mL (≈ 9.21 µM).
Take `CCSCc1nnc(SCC(=O)Nc2nccs2)n1CC`: the solubility (kinetic) was over 51.5 µg/mL.
`N#C/C(=C\Nc1ccc2c(c1)OCCO2)C(=O)NCc1ccco1`: the kinetic solubility stood at 4.6 µg/mL (≈ 14.1 µM).
`Cc1ccc(CNC(=O)Cc2ccc(Br)cc2)cc1` came in with a solubility (kinetic) of under 0.7 µg/mL.
`Cc1c(Cl)cccc1NC(=S)NCCc1ccccn1` showed a kinetic solubility of over 45.9 µg/mL.
In the case of `CCC/C(O)=C1\C(=O)CC(C)(C)CC1=Nc1ccc(OC)cc1` it was 41.6 µg/mL (≈ 132 µM).
Regarding `CS(=O)(=O)N1CCc2cc(C(=O)N3CCCC3)ccc21`, the kinetic solubility was over 44.2 µg/mL.
Regarding `Cc1cccc(NC(=O)c2ccco2)c1C(=O)O`, the kinetic solubility stood at 34.8 µg/mL (≈ 142 µM).
In the case of `O=C(Cc1ccccc1)Nc1cccc(NC(=O)c2ccccc2)c1` it was 1.5 µg/mL (≈ 4.54 µM); in that of `CSCCC(NC(=O)C1CCCC1)c1nnc2ccccn12` (stereo unspecified), over 47.8 µg/mL.
In the case of `O=Cc1ccc2ccc3cccnc3c2n1` it was over 31.2 µg/mL; in that of `CN=C1S/C(=C\c2c(OC)cc(OC)cc2OC)C(=O)N1C`, 1.1 µg/mL (≈ 3.41 µM).
Next, `COC(=O)c1cc(OC)c(OC)cc1NC(=O)CSCc1c(C)noc1C`: 15.6 µg/mL (≈ 39.5 µM).
As to `O=C(O)Cc1ccc2oc(-c3ccccn3)nc2c1`, the solubility (kinetic) is over 38.1 µg/mL.
In turn, `CNC(=S)Nc1ccc2nc(C)oc2c1` gave a kinetic solubility of over 33.2 µg/mL.
`CCOC(=O)C1=C(c2ccccc2)NC(=O)NC1c1ccsc1` (stereo unspecified) displayed a solubility (kinetic) of 43.9 µg/mL (≈ 134 µM).
In the case of `CC1(C)CC(NC(=S)NC2CC2)CC(C)(C)N1` it was over 38.3 µg/mL.
Next, `CCOC(=O)N1CCN(CCc2ccccc2)CC1`: 30.6 µg/mL (≈ 117 µM); `Br.Nc1ncc([N+](=O)[O-])cc1Br`: over 44.8 µg/mL.
`Cc1cnc(NC(=O)C2CCC(C(C)(C)C)CC2)s1` (stereo unspecified) had a solubility (kinetic) of under 0.3 µg/mL.
`Cc1ccc(C)c(Nc2ccc3nonc3c2[N+](=O)[O-])c1` returned a solubility (kinetic) of 2 µg/mL (≈ 7.04 µM).
Next, `COCCCNS(=O)(=O)c1ccc2[nH]c(=O)[nH]c2c1`: over 42.8 µg/mL.
Next, `O=C(CC(c1ccccc1)c1ccco1)N1CCCCC1` (stereo unspecified): over 42.5 µg/mL; `Cc1cc(C(=O)Nc2ccccc2C(=O)O)oc1C`: 31.3 µg/mL (≈ 121 µM); `O=S(=O)(Nc1cccc(CCc2ccccn2)c1)c1ccc(Cl)cc1`: 19.1 µg/mL (≈ 51.2 µM).
In the case of `Cc1ccc(C(=O)N2CCN(C(=O)C3CCCO3)CC2)cc1` (stereo unspecified) it was over 45.4 µg/mL.
`COc1cccc(C(=O)Nc2ccncc2)c1OC` gave a kinetic solubility of over 38.7 µg/mL.
Compound `Cc1ccc(Cl)cc1N1CCN(C(=S)NCc2ccco2)CC1` yielded a solubility (kinetic) of 1 µg/mL (≈ 2.86 µM).
Next, `CC(C)(C)C(=O)Nc1cc2c3c(c1)CC(=O)N3CCC2`: 35.9 µg/mL (≈ 132 µM); `N#C/C(=C\Nc1ccc(Cl)cn1)S(=O)(=O)c1ccccc1`: under 0.2 µg/mL.
As to `CCOC(=O)Cn1c(=O)c(C#N)cn(C(C)C)c1=O`, the solubility (kinetic) is over 39.8 µg/mL.
`CC(=O)Nc1ccc(CNC(=O)C[N+]2(C)CCOCC2)cc1.[Cl-]`: the kinetic solubility turned out to be 46.2 µg/mL.
`O=C(Nc1ccc(Cl)cn1)c1cccc2ccccc12` returned a solubility (kinetic) of 1.3 µg/mL (≈ 4.6 µM).
In the case of `NC(=NCc1ccco1)NC(=O)c1ccc(Cl)cc1` it was over 41.7 µg/mL; in that of `COc1cccc(OC)c1C(=O)Nc1ccc(Br)c(C(=O)c2ccccc2)c1`, 4.2 µg/mL (≈ 9.54 µM); in that of `O=C(Nc1cccc(S(=O)(=O)N2CCOCC2)c1)c1cc(=O)[nH]c2ccccc12`, 9.9 µg/mL (≈ 23.9 µM).
Next, `O=C(COC(=O)c1ccc(Br)cc1)NC1CCCC1`: 5.4 µg/mL (≈ 16.6 µM); `CCc1nc(=O)c(-c2ccccc2)c(C)n1-c1ccccc1`: over 43.6 µg/mL; `CC(=O)c1cccc(NC(=O)Nc2nc(C)cc(C)n2)c1`: 1.8 µg/mL (≈ 6.33 µM).
Next, `Cc1ccc(S(=O)(=O)N2CCCCC2)cc1`: 20 µg/mL (≈ 83.6 µM); `O=C(c1noc2c1CCCC2)N1CCc2ccccc2C1`: 40.8 µg/mL (≈ 145 µM).
Take `NC(=O)CCN1CCC(c2nc3ccccc3s2)CC1`: the kinetic solubility was determined as 35.3 µg/mL (≈ 122 µM). This solubility kinetic and that of the compound before are within 1.5-fold of each other.
On to `CN(Cc1ccccc1)C(=O)COc1ccc(Br)cc1Cl`, for which the solubility (kinetic) was 12.6 µg/mL (≈ 34.2 µM).
Take `COc1nc(C)cc(C)c1S(=O)(=O)c1ccccc1C`: the solubility (kinetic) was found to be 4.8 µg/mL (≈ 16.5 µM).
In the case of `O=S(=O)(NCCCN1CCOCC1)c1ccc(Cl)cc1` it was over 47.8 µg/mL.
`CC(NC(=O)c1ccccc1)C(=O)NC1CCCc2ccccc21` (stereo unspecified) registered a kinetic solubility of 14.7 µg/mL (≈ 45.6 µM).
In the case of `O=C(c1ccc(S(=O)(=O)N2CCCC2)cc1)N1CCCCCC1` it was over 50.5 µg/mL; in that of `c1ccc(-n2ccnc2)cc1`, 19.7 µg/mL (≈ 137 µM); in that of `CCCC(=O)Nc1cc(OC)c(C(=O)OC)cc1Cl`, over 42.9 µg/mL.
In the case of `Cc1ccc(C2NC(c3ccc(C)cc3)C(C)C(=O)C2C)cc1` (stereo unspecified) it was under 0.7 µg/mL; in that of `Cc1cc(C(=O)N2CCN(c3ncccn3)CC2)nn1C`, over 43 µg/mL; in that of `O=C(Nc1ccc(F)cc1F)Nc1sccc1-c1nc2ccccc2s1`, 0.3 µg/mL (≈ 0.774 µM).
In the case of `COc1ccc(CC(=O)OCC(=O)NCc2ccc(F)cc2)cc1` it was over 49.7 µg/mL.
As to `CC(C)NC(=S)NCc1cccs1`, the solubility (kinetic) is over 32.2 µg/mL.
Compound `Cc1ccc(NC(=O)CNC(=O)C2CCCCC2)nc1` came in with a kinetic solubility of over 41.3 µg/mL.
